Laboratory results taken from paper PMC11897194 (Nature Communications, 2025).

Target: T1, EfAvs5 (Kosakonia oryzae, UniProt A0AA94GZI5)
T1 sequence (A0AA94GZI5 1-849): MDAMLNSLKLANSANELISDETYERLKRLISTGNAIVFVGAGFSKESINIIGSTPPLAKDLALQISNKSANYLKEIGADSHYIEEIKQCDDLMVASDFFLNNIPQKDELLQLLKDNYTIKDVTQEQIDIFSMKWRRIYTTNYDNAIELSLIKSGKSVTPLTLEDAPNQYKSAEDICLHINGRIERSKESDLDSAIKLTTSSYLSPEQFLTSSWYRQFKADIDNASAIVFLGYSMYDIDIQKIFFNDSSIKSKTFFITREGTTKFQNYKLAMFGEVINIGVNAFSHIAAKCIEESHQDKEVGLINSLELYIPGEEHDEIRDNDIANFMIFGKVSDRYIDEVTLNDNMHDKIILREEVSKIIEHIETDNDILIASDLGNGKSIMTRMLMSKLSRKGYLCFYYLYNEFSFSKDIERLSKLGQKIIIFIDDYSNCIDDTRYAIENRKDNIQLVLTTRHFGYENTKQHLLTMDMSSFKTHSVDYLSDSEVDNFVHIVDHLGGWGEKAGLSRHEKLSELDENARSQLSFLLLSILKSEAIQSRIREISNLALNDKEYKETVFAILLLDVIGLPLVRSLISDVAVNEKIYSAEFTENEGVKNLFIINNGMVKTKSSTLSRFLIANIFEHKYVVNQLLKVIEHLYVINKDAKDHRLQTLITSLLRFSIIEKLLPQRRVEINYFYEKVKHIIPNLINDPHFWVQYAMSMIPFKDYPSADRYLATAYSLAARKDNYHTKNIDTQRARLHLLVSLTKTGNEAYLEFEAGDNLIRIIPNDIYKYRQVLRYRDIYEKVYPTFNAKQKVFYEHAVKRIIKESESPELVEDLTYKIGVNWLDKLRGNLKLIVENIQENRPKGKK
Assay: biochemical

## Nc1ncnc2c1ncn2[C@@H]1O[C@H](COP(=O)(O)OP(=O)(O)OP(=O)(O)O)[C@@H](O)[C@H]1O [ATP]
  Ki: 1740 ± 98 µM
